Laboratory results published in patent publication US12173042B2, “Methods of treating cancers with CT45 targeted therapies” (The University of Chicago, priority 2016, dated 2024).
“Also recorded” adds a separate entry of the source.

Key:
[1] = test system: OVCAR5 stably overexpressing CT45; assay: Clonogenic survival assay, OVCAR5; type: cell-based, human; details: CT45 expressing cells treated with carboplatin
Procedure: Cells were treated with different carboplatin concentrations for 48 hours and 7-9 days after treatment colonies were counted and plotted as a percent of control on a logarithmic scale.
Cells were treated with different carboplatin concentrations for 48-72 hours. 2000 cells per 6-well were then plated for 7-9 days in drug-free medium. Grown colonies were fixed and stained with 1% formaldehyde, 1% methanol and 0.05% Crystal Violet for 20 min. Colony numbers were then counted with the Colony Area ImageJ plugin and plotted as percent of control on a logarithmic scale.

[2] = test system: KAP-1 Ser824 phosphorylation; assay: KAP-1 Ser824 phosphorylation (western blot, immunofluorescence); type: cell-based, human; details: carboplatin 5 μM
Procedure: Cells were treated with indicated drugs for 3 days and then media was changed. On indicated day of collection, both adherent and non-adherent cells were collected in RIPA buffer (25 mM Tris-HCl pH 7.6, 150 mM NaCl, 1% NP-40, 0.5% sodium deoxycholate, 0.1% SDS) supplemented with protease inhibitor cocktail (Thermo Scientific) and phosphatase inhibitor cocktail (Sigma). Lysates were incubated for 30 min on ice, sonicated and cleared by centrifugation (15 min, 14 000 rpm, 4° C.). The quantity of protein was determined by BCA reagent (Pierce). The extracts were analyzed by SDS-PAGE on a 4-20% gradient gel (Bio-Rad).
Cells were treated with 0 or 5 μM carboplatin on glass chamber slides. After 72 hr, media was changed. At designated timepoints, slides were fixed for 10 min at room temperature with 4% paraformaldehyde, cells were washed and permeabilized with PBS/0.1% Triton-X for 15 min and then blocked for 1 hr in blocking buffer (PBS/0.1% Triton-X/0.05% BSA/0.05% goat serum). Cells were washed three times and then were then incubated with primary antibody overnight diluted in blocking buffer at 4° C. Following three washes, cells were incubated with secondary antibody (diluted in blocking buffer) for 1 hr at room temperature and then with Hoechst 33342 for 2 min. Slides were mounted with ProLong Gold Antifade. […] A minimum of 100 cells/sample were analyzed. […]

[3] = test system: OVCAR5 CT45 expressing cells; assay: Proliferation with increasing concentrations of carboplatin; type: cell-based, human; details: CT45 expressing cells treated with carboplatin
Procedure: FIG. 8A-B. CT45 sensitizes cancer cells to carboplatin. a, Western blot of CT45 expression in ovarian cancer cell lines transduced with a CT45A5 lentivirus. b, Proliferation of OVCAR5 control (V5) or CT45 expressing cells with increasing concentrations of carboplatin.
FIG. 19A-F. CT45 sensitizes cancer cells to carboplatin. a, MTT of SKOV3ip1 cells with or without 500 nM DAC treated with increasing doses of carboplatin. Cells were pretreated with 500 nM DAC for 72 hr then cultured for 4 days and treated with carboplatin on day 7. The MTT was performed after 72 hr with carboplatin treatment. b, Western blot of CT45 expression in ovarian cancer cell lines transduced with a CT45A5 lentivirus. c, Proliferation of OVCAR5 control (V5) or CT45 expressing cells with increasing concentrations of carboplatin. d, Cell cycle analysis of OVCAR5 control (V5) or CT45 expressing cells stained with propidium iodide. e, Clonogenic survival assay of the ovarian cancer cell line OVKATE stably overexpressing CT45 or control. Dots represent mean values from three independent experiments. Error bars show s.e.m. for each group. f, Interaction proteomics screen in the ovarian cancer cell line COV318 stably over-expressing V5-tagged CT45. Protein enrichment (t-test difference) is calculated over the corresponding control cell line (V5 tag alone) and plotted against the t-test p-value (−log10). […]

[4] = test system: OVCAR5-V5-CT45 tumors; assay: Subcutaneous tumor growth in nude mice, CT45 expressing tumors; type: in vivo, athymic nude mice; details: carboplatin 20 mg/kg tail vein 1 time/week, vs untreated CT45 tumors
Procedure: (§1) 5 million OVCAR5-V5 or OVCAR5-V5-CT45 cells suspended in a 1:2 solution of serum-free media to growth-factor reduced matrigel were injected subcutaneously into the right and left flanks respectively, of 8 week old female athymic nude mice. After 5 days, treatment was administered through the tail vein 1 time/week at 20 mg/kg. Sterile water served as the control treatment. Tumor growth was measured every 2-3 days using calipers until the tumor neared 1 cm3 and was measured daily. Once the tumor reached 1 cm3 the mouse was sacrificed. 4 mice were removed from the study early due to ulcerations of the skin. All experiments were approved by the Institutional Animal Care and Use Committee of the University of Chicago.
as §1, with “Five million” for “5 million”, “8 weeks” for “8 week”, “1 cm^3” for “1 cm3”, “skin. […]” for “skin. All experiments were approved by the Institutional Animal Care and Use Committee of the University of Chicago.”

[5] = test system: chromatin of OVCAR5-V5-CT45 and OVCAR5-V5 cells; assay: Micrococcal nuclease (MNase) assay; type: cell-based, human; details: after five days, vector control and CT45 overexpressing cell line
Procedure: Chromatin relaxation was assayed using the micrococcal nuclease (MNase) assay as previously described, with a few modifications. Briefly, nuclei from 1E6 cells were extracted with 300 μl ice-cold lysis buffer (10 mM Tris-HCl (pH 7.5), 10 mM NaCl, 3 mM MgCl2 and 0.4% IGPAL-CA-630) on ice for 5 min. After centrifugation (2,000 g for 5 min at 4° C.), nuclei were washed two times in lysis buffer and one time in 500 μl digestion buffer (0.32M sucrose, 50 mM Tris-HCl (pH7.5), 4 mM MgCl2, 1 mM CaCl2). Nuclei were then digested in digestion buffer with 50 gel units MNase (NEB) for 9 min at 27° C. in a final volume of 100 μl. The reaction was stopped by adding a final concentration of 1% SDS and 15 mM EGTA. Genomic DNA was purified and separated by gel electrophoresis (1.2% agarose).

For `N.N.O=C([O-])C1(C(=O)[O-])CCC1.[Pt+2]` [carboplatin], the colony formation [1] was “significantly reduced”, the “time of peak of phosphorylated KAP-1” value ([2]; both cell lines) was 3 days and the “phosphorylation of KAP-1 at Ser824” value [2] was “induced phosphorylation”. The proliferation [3] was “significantly reduced; also recorded: reduced proliferation”, the tumor growth [4] was “significantly reduced growth” and the chromatin relaxation [5] was “induced global chromatin relaxation”.
